Assay results taken from PubChem BioAssay AID2060910 (Molecular Pharmacology Branch, DTP, NCI, 2025).

Test system: 242566-281-R-J2-PDC complex spheroid viability
Assay: Anticancer human tumor 242566-281-R-J2-PDC patient-derived pancreatic carcinoma cell line growth inhibition [RAS]
Settings: for IC50: curve of first compound; for viability, T/C: stronger effect = lower value; active = viability on the fitted dose curve at most 10% of control; inactive = the rest
Method in brief: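 Tumour cells grown as complex spheroids with HUVEC endothelial cells and mesenchymal stem cells, treated with RAS pathway inhibitor combinations. Each agent spans half-log steps from near clinical Cmax, or 10 microM where Cmax is unknown.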

[1] = second compound 0.000949 µM, first compound 0.00316 µM
[2] = second compound 0.000949 µM, first compound 0.01 µM
[3] = second compound 0.000949 µM, first compound 0.0316 µM
[4] = second compound 0.000949 µM, first compound 0.1 µM
[5] = second compound 0.003 µM, first compound 0.00316 µM
[6] = second compound 0.003 µM, first compound 0.01 µM
[7] = second compound 0.003 µM, first compound 0.0316 µM
[8] = second compound 0.003 µM, first compound 0.1 µM
[9] = second compound 0.00949 µM, first compound 0.00316 µM
[10] = second compound 0.00949 µM, first compound 0.01 µM
[11] = second compound 0.00949 µM, first compound 0.0316 µM
[12] = second compound 0.00949 µM, first compound 0.1 µM
[13] = second compound 0.03 µM, first compound 0.00316 µM
[14] = second compound 0.03 µM, first compound 0.01 µM
[15] = second compound 0.03 µM, first compound 0.0316 µM
[16] = second compound 0.03 µM, first compound 0.1 µM
[17] = second compound 0.0949 µM, first compound 0.00316 µM
[18] = second compound 0.0949 µM, first compound 0.01 µM
[19] = second compound 0.0949 µM, first compound 0.0316 µM
[20] = second compound 0.0949 µM, first compound 0.1 µM
[21] = second compound 0.3 µM, first compound 0.00316 µM
[22] = second compound 0.3 µM, first compound 0.01 µM
[23] = second compound 0.3 µM, first compound 0.0316 µM
[24] = second compound 0.3 µM, first compound 0.1 µM
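Also: spheroids exposed to compound for 7 days before readout.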
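For viability, T/C in this document: 100% = DMSO vehicle control wells.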

CC(C)n1nc(-c2ccc3oc(N)nc3c2)c2c(N)ncnc21 + CCn1c(-c2cccnc2C(C)OC)c2c3cc(ccc31)N1CCOC(CC(NC(=O)C(C(C)C)N(C)C(=O)C3(F)CCN(C(=O)C#CC(C)(C)N(C)C)CC3)C(=O)N3CCCC(N3)C(=O)OCC(C)(C)C2)C1
0.0204 µM: IC50 (second compound 0.0949 µM)
0.0435 µM: IC50 (second compound 0.000949 µM)
0.0273 µM: IC50 (second compound 0.03 µM)
inactive: viability, T/C (second compound 0.000949 µM, first compound 0.000316 µM) 120% | viability, T/C (second compound 0.000949 µM, first compound 0.001 µM) 86.6% | viability, T/C [1] 81.6% | viability, T/C [2] 79.8% | viability, T/C [3] 62.2% | viability, T/C [4] 30.4% | viability, T/C (second compound 0.003 µM, first compound 0.000316 µM) 95.6% | viability, T/C (second compound 0.003 µM, first compound 0.001 µM) 80.3% | viability, T/C [5] 76.2% | viability, T/C [6] 73% | viability, T/C [7] 61.6% | viability, T/C [8] 30.9% | viability, T/C (second compound 0.00949 µM, first compound 0.000316 µM) 102% | viability, T/C (second compound 0.00949 µM, first compound 0.001 µM) 77.9% | viability, T/C [9] 87.7% | viability, T/C [10] 75% | viability, T/C [11] 43.4% | viability, T/C [12] 33.9% | viability, T/C (second compound 0.03 µM, first compound 0.000316 µM) 89.5% | viability, T/C (second compound 0.03 µM, first compound 0.001 µM) 87.6% | viability, T/C [13] 92.4% | viability, T/C [14] 72.7% | viability, T/C [15] 47.6% | viability, T/C [16] 37.9% | viability, T/C (second compound 0.0949 µM, first compound 0.000316 µM) 76.1% | viability, T/C (second compound 0.0949 µM, first compound 0.001 µM) 78.8% | viability, T/C [17] 83.5% | viability, T/C [18] 67.2% | viability, T/C [19] 39.5% | viability, T/C [20] 31.9% | viability, T/C (second compound 0.3 µM, first compound 0.000316 µM) 88% | viability, T/C (second compound 0.3 µM, first compound 0.001 µM) 82% | viability, T/C [21] 70.5% | viability, T/C [22] 58.8% | viability, T/C [23] 42.4% | viability, T/C [24] 30%
0.0448 µM: IC50 (second compound 0.003 µM)
0.0184 µM: IC50 (second compound 0.3 µM)
0.0252 µM: IC50 (second compound 0.00949 µM)

C=CC(=O)Nc1cc(Nc2nccc(-c3cn(C)c4ccccc34)n2)c(OC)cc1N(C)CCN(C)C + CCn1c(-c2cccnc2C(C)OC)c2c3cc(ccc31)N1CCOC(CC(NC(=O)C(C(C)C)N(C)C(=O)C3(F)CCN(C(=O)C#CC(C)(C)N(C)C)CC3)C(=O)N3CCCC(N3)C(=O)OCC(C)(C)C2)C1
inactive: viability, T/C [1] 87.8% | viability, T/C [2] 107% | viability, T/C [3] 82.5% | viability, T/C [4] 91% | viability, T/C (second compound 0.000949 µM, first compound 0.316 µM) 86.7% | viability, T/C (second compound 0.000949 µM, first compound 1 µM) 50.3% | viability, T/C [5] 131% | viability, T/C [6] 95% | viability, T/C [7] 92.2% | viability, T/C [8] 84.3% | viability, T/C (second compound 0.003 µM, first compound 0.316 µM) 89.8% | viability, T/C (second compound 0.003 µM, first compound 1 µM) 47.2% | viability, T/C [9] 119% | viability, T/C [10] 95.8% | viability, T/C [11] 82.8% | viability, T/C [12] 102% | viability, T/C (second compound 0.00949 µM, first compound 0.316 µM) 77.4% | viability, T/C (second compound 0.00949 µM, first compound 1 µM) 51.1% | viability, T/C [13] 97.6% | viability, T/C [14] 95.3% | viability, T/C [15] 99.1% | viability, T/C [16] 93.6% | viability, T/C (second compound 0.03 µM, first compound 0.316 µM) 66% | viability, T/C (second compound 0.03 µM, first compound 1 µM) 52.2% | viability, T/C [17] 98.5% | viability, T/C [18] 98.7% | viability, T/C [19] 99.2% | viability, T/C [20] 83.5% | viability, T/C (second compound 0.0949 µM, first compound 0.316 µM) 61.3% | viability, T/C (second compound 0.0949 µM, first compound 1 µM) 49.5% | viability, T/C [21] 94.9% | viability, T/C [22] 86.9% | viability, T/C [23] 78% | viability, T/C [24] 70.4% | viability, T/C (second compound 0.3 µM, first compound 0.316 µM) 56.5% | viability, T/C (second compound 0.3 µM, first compound 1 µM) 47.8%
0.983 µM: IC50 (second compound 0.0949 µM)
> 1 µM: IC50 (second compound 0.000949 µM) | IC50 (second compound 0.003 µM) | IC50 (second compound 0.00949 µM) | IC50 (second compound 0.03 µM)
0.754 µM: IC50 (second compound 0.3 µM)
